# Measured values taken from patent publication US20240076609A1, “COMPOSITIONS AND METHODS FOR CULTURING AND EXPANDING CELLS” (LIFE TECHNOLOGIES CORPORATION, priority 2017, published 2024).
# Where “and” joins values, the source holds several entries; their conditions need not be identical. Equal values may be shown once.
# Columns and labels:
# Format in all cases: cell-based, human
# Naïve T cells = test: Expansion of naïve T cells with 2-DG; details: 4 mM 2-DG
# Description: T cell activation and expansion: T cells (seeding density 1×10^6 vc/mL) were activated with DYNABEADS® Human T-Expander CD3/CD28 (Thermo Fisher Scientific, Cat. No. 11141D) at a ratio of 3 beads per T cell and cultured in serum-free medium, animal origin free medium. T cells were counted on days 5, 7, 10, and 12 on a Vi-CELL XR analyzer (Beckman Coulter, Indianapolis IN) and fed with or without 2-DG (0.25 mM, 0.5 mM, 1 mM, 2 mM, and 4 mM) and 5% human AB serum to a density of 5×10^5 vc/mL on days 3, 5, and 7 and 1×10^6 vc/mL on day 10. For some studies, CD8+ and CD4+ T cells were isolated from PBMCs by negative selection using Untouched Human CD8+ and CD4+ T Cells Kits. Naïve and non-naïve T cells were isolated from enriched T cells by positive selection using CD45RA nanobeads (Miltenyi). […]
# [1] = system: mixed CD4+ T cells and CD8+ T cells; test: CD4+/CD8+ frequencies after 10 days with 2-DG in mixed CD4+:CD8+ cells (5:1, 10:1); details: 0.25 mM 2-DG; for correction of deficits in CD8+ T cells compared to day 0: CD4+:CD8+ mixed 5:1 and 10:1
# Description: For some studies, CD8+ and CD4+ T cells were isolated from PBMCs by negative selection using Untouched Human CD8+ and CD4+ T Cells Kits. Naïve and non-naïve T cells were isolated from enriched T cells by positive selection using CD45RA nanobeads (Miltenyi). Phenotype: Primary human T cells were expanded for 10 days with and without 2-DG and 5% human AB serum. DYNABEADS® were removed from 2×10^6 cells by magnetic separation. Surface staining was performed with antibodies against CD3 (Invitrogen, Cat. No. CD0329), CD4 (Molecular Probes, Cat. No. A15858), CD8 (Invitrogen, Cat. No. MHCD0828). Flow cytometric analysis was performed on a Gallios flow cytometer and Kaluza software (Beckman Coulter, Indianapolis IN). For some studies, CD8+ and CD4+ T cells were isolated from PBMCs by negative selection using Untouched Human CD8+ and CD4+ T Cells Kits. Naïve and non-naïve T cells were isolated from enriched T cells by positive selection using CD45RA nanobeads (Miltenyi). Phenotype: Primary human T cells were expanded for 10 days with and without 2-DG and 5% human AB serum. DYNABEADS® were removed from 2×10^6 cells by magnetic separation. Surface staining was performed with antibodies against CD3 (Invitrogen, Cat. No. CD0329), CD4 (Molecular Probes, Cat. No. A15858), CD8 (Invitrogen, Cat. No. MHCD0828). Flow cytometric analysis was performed on a Gallios flow cytometer and Kaluza software (Beckman Coulter, Indianapolis IN).
# Pan CD3+ T cells = test: CD8+/CD4+ phenotype by flow cytometry after 10 days with 2-DG; details: for CD8+ T cell population (frequency): day 10
# Description: Phenotype: Primary human T cells were expanded for 10 days with and without 2-DG and 5% human AB serum. DYNABEADS® were removed from 2×10^6 cells by magnetic separation. Surface staining was performed with antibodies against CD3 (Invitrogen, Cat. No. CD0329), CD4 (Molecular Probes, Cat. No. A15858), CD8 (Invitrogen, Cat. No. MHCD0828). Flow cytometric analysis was performed on a Gallios flow cytometer and Kaluza software (Beckman Coulter, Indianapolis IN). Phenotype: Primary human T cells were expanded for 10 days with and without 2-DG and 5% human AB serum. DYNABEADS® were removed from 2×10^6 cells by magnetic separation. Surface staining was performed with antibodies against CD3 (Invitrogen, Cat. No. CD0329), CD4 (Molecular Probes, Cat. No. A15858), CD8 (Invitrogen, Cat. No. MHCD0828). Flow cytometric analysis was performed on a Gallios flow cytometer and Kaluza software (Beckman Coulter, Indianapolis IN).
# [2] = Day 10, 10:1 CD4+ CD8+ ratio, average
# [3] = Day 10, 5:1 CD4+ CD8+ ratio, replicates
# [4] = Day 10, 10:1 CD4+ CD8+ ratio, replicates
# [5] = 0.25 mM 2-DG, Day 10 of culture
# [6] = 0.25 mM 2-DG, Day 10, single donors
# [7] = 0.5 mM 2-DG, Day 10, single donors
smiles,measurement,setting,value
"O=CC[C@@H](O)[C@H](O)[C@H](O)CO [2-DG, 2-Deoxy-D-Glucose]",effect of 2-DG on growth of naïve T cells,Naïve T cells; 12 days,did not affect growth of either cell type
same,Cultured Naïve T Cell Population Doublings,Naïve T cells; day 5,1.70
same,Cultured Naïve T Cell Population Doublings,Naïve T cells; day 7,3.92
same,Cultured Naïve T Cell Population Doublings,Naïve T cells; day 10,5.45
same,Cultured Naïve T Cell Population Doublings,Naïve T cells; day 12,6.13
same,% CD4+,"[1]; Day 10, 10:1 CD4+ CD8+ ratio",44.89% and 44.25%
same,% CD4+ (Avg),"[1]; Day 10, 10:1 CD4+ CD8+ ratio",44.57%
same,% CD8+,"[1]; Day 10, 10:1 CD4+ CD8+ ratio",43.55% and 45.35%
same,% CD8+ (Avg),"[1]; Day 10, 10:1 CD4+ CD8+ ratio",44.45%
same,% CD4+ (Avg),[1]; [2],44.57%
same,% CD8+ (Avg),[1]; [2],44.45%
same,% CD4+ (Avg),"[1]; Day 10, 5:1 CD4+ CD8+ ratio",33.39%
same,% CD8+ (Avg),"[1]; Day 10, 5:1 CD4+ CD8+ ratio",53.83%
same,% CD4+,[1]; [3],32.91% and 33.88%
same,% CD8+,[1]; [3],53.50% and 54.17%
same,% CD4+,[1]; [4],44.25% and 44.89%
same,% CD8+,[1]; [4],45.35% and 43.55%
same,correction of deficits in CD8+ T cells compared to day 0,[1],able to correct for a large deficits in CD8+ T cells
same,correction of deficits in CD8+ T cells compared to day 0,[1]; listed as 2-DH,able to correct for substantial deficits in CD8+ T cells
same,% CD4+,Pan CD3+ T cells; [5],39.21% and 32.39% and 22.68%
same,% CD8+,Pan CD3+ T cells; [5],53.46% and 63.2% and 70.32%
same,% Ratios (CD8+/CD4+) (Avg),"Pan CD3+ T cells; 0.25 mM 2-DG, Day 10 of culture, average",2.1
same,Fold Increase compared to Baseline,"Pan CD3+ T cells; 0.25 mM 2-DG, Day 10 vs Day 0 CD8+/CD4+ ratio",3.02 and 2.49 and 3.99
same,% Ratios (CD8+/CD4+) (Avg),"Pan CD3+ T cells; 0.25 mM 2-DG, Day 10",2.1
same,% CD4+,Pan CD3+ T cells; [6],39.21% and 32.39% and 22.68%
same,% CD8+,Pan CD3+ T cells; [6],53.46% and 63.2% and 70.32%
same,% Ratios (CD8+/CD4+),Pan CD3+ T cells; [6],1.36 and 1.95 and 3.10
same,Fold Increase (Avg),"Pan CD3+ T cells; 0.25 mM 2-DG, Day 10 vs Day 0",3.2
same,Fold Increase in CD8+ to CD4+ ratio,"Pan CD3+ T cells; 0.25 mM 2-DG, Day 10 vs Day 0, single donors",3.02 and 2.49 and 3.99
same,CD8+ T cell population (frequency),"Pan CD3+ T cells; 0.25 mM and 0.5 mM 2-DG, single donor",48%
same,% CD4+,"Pan CD3+ T cells; 0.5 mM 2-DG, Day 10 of culture",37.08% and 29.85% and 23.85%
same,% CD8+,"Pan CD3+ T cells; 0.5 mM 2-DG, Day 10 of culture",55.04% and 66.57% and 68.64%
same,% Ratios (CD8+/CD4+),"Pan CD3+ T cells; 0.5 mM 2-DG, Day 10 of culture",1.48 and 2.23 and 2.88
same,% Ratios (CD8+/CD4+) (Avg),"Pan CD3+ T cells; 0.5 mM 2-DG, Day 10 of culture, average",2.2
same,Fold Increase compared to Baseline,"Pan CD3+ T cells; 0.5 mM 2-DG, Day 10 vs Day 0 CD8+/CD4+ ratio",3.29 and 2.85 and 3.7
same,% Ratios (CD8+/CD4+) (Avg),"Pan CD3+ T cells; 0.5 mM 2-DG, Day 10",2.2
same,% CD4+,Pan CD3+ T cells; [7],37.08% and 29.85% and 23.85%
same,% CD8+,Pan CD3+ T cells; [7],55.04% and 66.57% and 68.64%
same,% Ratios (CD8+/CD4+),Pan CD3+ T cells; [7],1.48 and 2.23 and 2.88
same,Fold Increase (Avg),"Pan CD3+ T cells; 0.5 mM 2-DG, Day 10 vs Day 0",3.6
same,Fold Increase in CD8+ to CD4+ ratio,"Pan CD3+ T cells; 0.5 mM 2-DG, Day 10 vs Day 0, single donors",3.29 and 2.85 and 3.7
same,% CD4+,"Pan CD3+ T cells; 1 mM 2-DG, Day 10, Table 26",50%
same,% CD8+,"Pan CD3+ T cells; 1 mM 2-DG, Day 10, Table 26",42%
same,% Ratios (CD8+/CD4+),"Pan CD3+ T cells; 1 mM 2-DG, Day 10, Table 26",0.85
same,Fold Increase compared to Baseline,"Pan CD3+ T cells; 1 mM 2-DG, Day 10 vs Day 0, Table 26",2.18
same,% CD4+,"Pan CD3+ T cells; 2 mM 2-DG, Day 10, Table 26",42%
same,% CD8+,"Pan CD3+ T cells; 2 mM 2-DG, Day 10, Table 26",50%
same,% Ratios (CD8+/CD4+),"Pan CD3+ T cells; 2 mM 2-DG, Day 10, Table 26",1.18
same,Fold Increase compared to Baseline,"Pan CD3+ T cells; 2 mM 2-DG, Day 10 vs Day 0, Table 26",3.01
same,Fold Increase in CD8+ to CD4+ ratio,"Pan CD3+ T cells; 4 mM 2-DG, 10 days",4.1 fold
same,% CD4+,"Pan CD3+ T cells; 4 mM 2-DG, Day 10, Table 26",23%
same,% CD8+,"Pan CD3+ T cells; 4 mM 2-DG, Day 10, Table 26",63%
same,% Ratios (CD8+/CD4+),"Pan CD3+ T cells; 4 mM 2-DG, Day 10, Table 26",2.80
same,Fold Increase compared to Baseline,"Pan CD3+ T cells; 4 mM 2-DG, Day 10 vs Day 0, Table 26",7.15
same,CD8+ T cell population (frequency),Pan CD3+ T cells; 4 mM 2-DG,63%
